Source: patent US11090304B2 (Amgen Inc., priority 2018, dated 2021)

Target: GDP-bound KRAS protein (aa 1-169), containing both G12C and C118A amino acid substitutions (Homo sapiens, UniProt P01116, C118A/G12C)
Test: Coupled nucleotide exchange assay (SOS-mediated, AlphaScreen)
Assay type: biochemical
Details: 5 min compound pre-incubation

GDP-bound KRAS protein (aa 1-169), containing both G12C and C118A amino acid substitutions, sequence (P01116 1-169 isoform P01116-2 G12C/C118A): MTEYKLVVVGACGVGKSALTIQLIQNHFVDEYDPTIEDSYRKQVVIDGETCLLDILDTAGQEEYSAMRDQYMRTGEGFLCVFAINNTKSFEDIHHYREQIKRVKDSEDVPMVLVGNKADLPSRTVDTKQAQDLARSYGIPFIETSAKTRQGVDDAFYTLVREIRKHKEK

Compound	Coupled exchange IC50 (5 min)	IC50 (read-out: Coupled exchange IC50 (5 min)) [µM]
C=CC(=O)N1C[C@@H](C)N(c2nc(=O)n(-c3c(C)ccnc3C(C)C)c3nc(Cl)c(Cl)cc23)[C@@H](C)C1 (atropisomer, axis not shown; (M)) [Example 73-11, (M)-6,7-dichloro-4-(cis-2,6-dimethyl-4-(2-propenoyl)-1-piperazinyl)-1-(4-methyl-2-(2-propanyl)-3-pyridinyl)pyrido[2,3-d]pyrimidin-2(1H)-one]	0.625 | nda μM	
C=CC(=O)N1CCN(c2nc(C(N)=O)c(-c3ccccc3C(C)C)c3nc(-c4ccccc4F)c(Cl)cc23)CC1 [Example 147, 3-Chloro-2-(2-fluorophenyl)-8-(2-(2-propanyl)phenyl)-5-(4-(2-propenoyl)-1-piperazinyl)-1,6-naphthyridine-7-carboxamide]	13.6 | nda μM	
C=CC(=O)N1CCN(c2nc(=O)n(-c3c(CC)cccc3CC)c3nc(N4CC[C@H](OC)C4)c(Cl)cc23)[C@@H](C)C1 [Example 66-22, 6-chloro-1-(2,6-diethylphenyl)-7-((3S)-3-methoxy-1-pyrrolidinyl)-4-((2S)-2-methyl-4-(2-propenoyl)-1-piperazinyl)pyrido[2,3-d]pyrimidin-2(1H)-one]	40.7 | nda μM	
C=CC(=O)N1CCN(c2nc(=O)n(-c3c(C)ccnc3C(C)C)c3nc(-c4cc(N)ccc4Cl)c(F)cc23)[C@@H](C)C1 (single isomer, unassigned) [Example 58-8-2]	2.02 | nda μM	
C=CC(=O)N1CCN(c2cc(=O)n(CC(C)(C)C)c3nc(-c4ccccc4F)ccc23)[C@@H](C)C1 [Example 120, 1-(2,2-Dimethylpropyl)-7-(2-fluorophenyl)-4-((2S)-2-methyl-4-(2-propenoyl)-1-piperazinyl)-1,8-naphthyridin-2(1H)-one]	71.1 | nda μM	
C=CC(=O)N1CC(Oc2nc(=O)n(-c3c(C)ccnc3C(C)C)c3nc(-c4ccccc4F)c(Cl)cc23)C1 (atropisomer, axis not shown; (M)) [Example 79-1, (M)-6-Chloro-7-(2-fluorophenyl)-1-(4-methyl-2-(2-propanyl)-3-pyridinyl)-4-((1-(2-propenoyl)-3-azetidinyl)oxy)pyrido[2,3-d]pyrimidin-2(1H)-one]		3.29
C=CC(=O)N1CCN(c2nc(=O)n(-c3c(CC)cccc3CC)c3nc(N4CCC[C@@H]4CO)c(Cl)cc23)[C@@H](C)C1 [Example 66-9, 6-chloro-1-(2,6-diethylphenyl)-7-((2R)-2-(hydroxymethyl)-1-pyrrolidinyl)-4-((2S)-2-methyl-4-(2-propenoyl)-1-piperazinyl)pyrido[2,3-d]pyrimidin-2(1H)-one]	99.5 | nda μM	
C=CC(=O)N1CCN(c2nc(=O)n(-c3ccccc3C(C)C)c3nc(Cl)c(Cl)cc23)[C@@H](C)C1 (atropisomer, axis not shown; (M)) [Example 61-1-1, (M)-6,7-Dichloro-4-((2S)-2-methyl-4-(2-propenoyl)-1-piperazinyl)-1-(2-(2-propanyl)phenyl)pyrido[2,3-d]pyrimidin-2(1H)-one]	2.94 | nda μM	
C=CC(=O)N1CCN(c2nc(=O)n(-c3c(CO)ccnc3C(C)C)c3nc(-c4ccccc4F)c(Cl)cc23)C(C)C1 (atropisomer, axis not shown; (P)) [Example 84-1, (P)-6-chloro-7-(2-fluorophenyl)-1-(4-(hydroxymethyl)-2-(2-propanyl)-3-pyridinyl)-4-((2S)-2-methyl-4-(2-propenoyl)-1-piperazinyl)pyrido[2,3-d]pyrimidin-2(1H)-one]	2.71 | nda μM	
C=CC(=O)N1CCN(c2nc(=O)n(-c3c(C)ccnc3CC)c3nc(-c4ccccc4F)c(F)cc23)[C@@H](C)C1 [Example 57-16, 1-(2-ethyl-4-methyl-3-pyridinyl)-6-fluoro-7-(2-fluorophenyl)-4-((2S)-2-methyl-4-(2-propenoyl)-1-piperazinyl)pyrido[2,3-d]pyrimidin-2(1H)-one]	3.79 | nda μM	
